Test results taken from patent US20090263472A1, “ENDOTHELIN RECEPTOR ANTAGONIST DERIVATIVES” (NICOX S.A., priority 2006, published 2009).

Assays:
[1] = tested on: spontaneously hypertensive rats (SHR); test: Antihypertensive activity in vivo, tail-cuff systolic blood pressure; set-up: species or system rat; conditions: for Δ SBP (Systolic Blood Pressure) 1 hr / Δ SBP (Systolic Blood Pressure) 3 hrs / Δ SBP (Systolic Blood Pressure) 6 hrs: p.o., delta vs own baseline, bosentan 100 mpk, compound of EX. 1 equimolar dose; for Δ SBP (Systolic Blood Pressure) 1 hr: 1 hr after treatment; for Δ SBP (Systolic Blood Pressure) 3 hrs: 3 hrs after treatment; for Δ SBP (Systolic Blood Pressure) 6 hrs: 6 hrs after treatment
Description: Ten days prior to the beginning of the experiment, spontaneously hypertensive rats (SHR) are trained daily for the measurement of blood pressure by the tail-cuff method ([…] et Al.; Am. J. Physiol. Heart Circ. Physiol 286: […]-[…], 2004) using model BP-2000 Blood Pressure Analysis System from U.Basile (Comerio, VA Italy). Each animal is placed in individuals cages into a warming cupboard (37° C.) for 15 minutes. […] Average of blood pressure values from individual rats are evaluated from 3/5 different consecutive measurements. […] The data are processed both as the absolute value or as a delta between the absolute value and its own baseline.

[2] = tested on: isolated rabbit thoracic aorta preparations; test: Studies on vascular tone: vasorelaxation of noradrenaline-precontracted aortic rings; format: cell-based; conditions: for relaxation of precontracted aortic rings (in words): cumulative concentration-response curve, noradrenaline 1 μM precontraction

SMILES	Δ SBP (Systolic Blood Pressure) 1 hr [1]	Δ SBP (Systolic Blood Pressure) 3 hrs [1]	Δ SBP (Systolic Blood Pressure) 6 hrs [1]	EC50 (μM) ± sem ([2]; concentration producing 50% of maximum relaxation, aortic rings contracted with noradrenaline 1 μM, functional endothelium)	relaxation of precontracted aortic rings (in words) [2]	reduction in blood pressure (in words) ([1]; oral administration)	EC50 ([2]; concentration producing 50% of maximum relaxation, aortic rings contracted with noradrenaline 1 μM, functional endothelium, read-out: EC50 (μM) ± sem)
COc1ccccc1Oc1c(NS(=O)(=O)c2ccc(C(C)(C)C)cc2)nc(-c2ncccn2)nc1OCCO [Bosentan, reference compound]	0 mmHg	6 mmHg	−1 mmHg	no effect	did not produce relaxation at any of the concentration tested	–	–
COc1ccccc1Oc1c(NS(=O)(=O)c2ccc(C(C)(C)C)cc2)nc(-c2ncccn2)nc1OCCOC(=O)CCCO[N+](=O)[O-] [Compound of EX. 1]	−8 mmHg	−18 mmHg	−6 mmHg	–	able to induce relaxation in a concentration-dependent manner	able to induce a clear reduction in blood pressure	33.9 ± 2.5 µM
